Test results taken from patent publication US11945787B2, “Substituted imidazoles for preventing and/or treating cell or tissue necrosis” (Ela Pharma Ltd, priority 2015, dated 2024).
pIC50: −log10 of the molar value. Where a SMILES comes first, the peptide text is derived from it. The star is where a group is joined. MeOSuc = COC(=O)CCC(=O)*; CH2Cl = ClC*

How the values were obtained:
elastase-like activity = experiment: Elastase-like activity in lysates of KCN-treated U-937 cells (MAAPV substrate); format: biochemical, human
PC12 cells = experiment: KCN-induced necrosis of PC12 cells, LDH release; format: cell-based, rat; conditions: for KCN-induced necrotic cell death assessed by LDH release: PC12, KCN 5 hours, FIGS. 6, 7A-B; for % protection at indicated concentration 0.1 nM / % protection at indicated concentration 1 nM / % protection at indicated concentration 10 nM / % protection at indicated concentration 100 nM / % protection at indicated concentration 1 μM / protection of cells at 10 μM: KCN-induced necrosis (Table 2); for inhibition at 1 µM / inhibition at 0.1 µM / inhibition at 0.0001 µM / inhibition at 0.001 µM / inhibition at 0.01 µM: Rattus norvegicus, PC-12, 5 h, KCN, PC12, LDH release (Table 5); for inhibition at 1 µM: read-out: % protection at 1 μM; for inhibition at 0.1 µM: read-out: % protection at 0.1 μM; for % protection at indicated concentration 0.1 nM / inhibition at 0.0001 µM: 0.1 nM; for inhibition at 0.0001 µM: read-out: % protection at 0.1 nM; for % protection at indicated concentration 1 nM / inhibition at 0.001 µM: 1 nM; for inhibition at 0.001 µM: read-out: % protection at 1 nM; for % protection at indicated concentration 10 nM / inhibition at 0.01 µM: 10 nM; for inhibition at 0.01 µM: read-out: % protection At 10 nM
Procedure: The rat pheochromocytoma PC12 cell line was propagated in DMEM medium (Beit Haemek, Israel), supplemented with 5% heat-inactivated calf serum, 10% heat-inactivated horse serum, 2 mM L-glutamine, 100 U/ml penicillin and 100 μg/ml streptomycin. PC12 cells in logarithmic phase were seeded at a concentration of 1.2×10^5/well in 96-well plates and incubated overnight.
Thereafter, the cells were washed twice and maintained in RPMI-1640 (U-937cells) and DMEM (PC-12 cells) glucose-free medium, supplemented with 2 mM pyruvate and 10% dialyzed FCS for one hour. Then cells were treated with or without KCN (Merck, Germany) at the indicated concentrations for 7 hours (U-937 cells), or for 5 hours (PC12 cells).
Elastase inhibitors II (MeOSuc-AAPA-CMK) and elastase inhibitor III (MeOSuc-AAPV-CMK) were purchased from Calbiochem-Novabiochem, USA. Compound Gly-Phe diazomethylketone was purchased from MP Biomedicals, USA. All the compounds disclosed in Table 1 hereinabove were purchased from ChemDiv, San Diego, CA. The compounds were dissolved in DMSO and were administered 30 min before addition of the cell death inducer. The final concentration of DMSO, added to all samples, was 0.1%, which had no effect by itself siRNA and cell transfection
The amount of LDH released from lysed cells is a sensitive measure of cell death. Necrotic cell death was measured in 96-well plates using Promega CytoTox 96 LDH assay kit. LDH content from the cells lysed in 0.1% Triton X-100 for 10 min was used as an index of total LDH. The LDH released in culture medium was used as an index of necrotic cell death and the percentage from total LDH was calculated. The protection by the inhibitor was calculated based on comparing percentage of LDH release in the presence and in the absence of the inhibitor. The inhibitors were also added to totals, blanks and controls. Absorbance at 490 nm was measured by ELISA reader (BioTec).
These compounds were tested for their ability to inhibit necrosis induced by KCN in PC12 cells. The necrotic mode of cell death in this system was validated as previously described. PC12 cells were challenged with KCN as described above. The protective results of the compounds against KCN-induced necrosis assessed using LDH release method are shown below in Table 5. The IC50 values of these inhibitors is in the range of tens to single nanomolar.

[1] = system: C57BL/6J mice, closed head trauma; experiment: Closed head injury (traumatic brain injury) in mice; format: in vivo, mouse
Procedure: The closed head injury method was used to determine the effect of the elastase inhibitor on the development of brain necrosis and on the neurological status assessed using the neurological severity score (NSS). NSS test was performed 1 hour after trauma. During NSS test, various reflexes, ability to move, beam balance, beam walk and other behavior parameters like seeking and exiting from a cycle were monitored. Development of necrosis was measured by assessing necrotic space in brain slices stained with 2,3,5-triphenyl-2H-tetrazolium chloride (TTC).
C57BL/6J mice weighing 40+4 g (mean±SD) were used in the study. A weight-drop device was used to deliver a shock to the scull resulting in a controlled cerebral injury. Impact was delivered by a silicone-coated 5 mm metal tip extruding from a platform that falls down a frame. This model of cranial injury has been used in previous studies [Feldman Z et al., J Neurosurg (1995) 83:1060-1066; Shapira Y et al., J Neurosurg Anesthesiol (1995) 7:17-25].). All animal procedures and care techniques were approved by the Ben-Gurion University of the Negev Committee for the Ethical Care and Use of Animals in Research.
Mice were prepared for surgery by anesthetization with isoflurane and allowed to breathe spontaneously. Maintenance of adequate anesthesia for the experimental procedure was confirmed by loss of corneal reflexes. Once the corneal reflexes were abolished, a midline scalp incision was made and the scalp and underlying muscles were moved laterally. Closed head trauma (CHT) was delivered to the skull over the frontal portion of the left cerebral hemisphere. 1 minute after the trauma 100 μg of elastase inhibitor II or III in its vehicle (DMSO solution), were injected intracerebraspinaly by direct delivery into the cisterna magna. The vehicle itself was previously found to have no effect.
In addition to the wild type C57BL/6J mice, neutrophil elastase knockout mice strain B6.129X1-Elane were also examined. All procedures were approved by the Ethics Committee of Ben-Gurion University of Negev.

CCOC(=O)[C@H]1O[C@@H]1C(=O)N[C@@H](CC(C)C)C(=O)NCCC(C)C [E-64d]
effect on elastase-like proteolytic activity (elastase-like activity; lysates after 10 mM KCN 30 min, data not shown): no effect

COC(=O)CCC(=O)N[C@@H](C)C(=O)N[C@@H](C)C(=O)N1CCC[C@H]1C(=O)N[C@H](C(=O)CCl)C(C)C [EI III, MeOSuc-AAPV-CMK] (MeOSuc-AAPV-CH2Cl)
KCN-induced necrotic cell death assessed by LDH release (PC12 cells): inhibited in a dose dependent manner
inhibition of necrosis induced by KCN at high concentrations (PC12 cells; up to 300 μM): significantly inhibited necrosis
effect of inhibitor by itself on PC-12 cells (PC12 cells; up to 300 μM, without KCN): inactive by themselves
inhibition of necrosis-induced elastase-like activity (elastase-like activity; 100 μM): completely inhibited
effect on elastase activity of control cells (elastase-like activity; 100 μM, control cells): slight effect
pIC50 (elastase-like activity; lysates after 10 mM KCN 30 min, FIG. 3, read-out: IC50 of inhibition of necrosis-induced elastase-like activity): 5.56
induction of elastase-like enzymatic activity in intact cells (elastase-like activity; treatment of intact cells): abrogated the induction
neurological severity score (NSS) ([1]; 100 μg into cisterna magna 1 min after trauma, 1 hour post injury): significantly reduce neurological damage
space of necrotic tissue, TTC staining ([1]; 100 μg into cisterna magna, untreated traumatized 50%): 25 % of the damaged hemisphere

O=C(C1CCCC1)N1CCN=C1N1CCCC1 [M059-0082, cyclopentyl(2-(pyrrolidin-1-yl)-4,5-dihydro-1H-imidazol-1-yl)methanone]
% protection at indicated concentration 0.1 nM (PC12 cells): 33%
% protection at indicated concentration 1 nM (PC12 cells): 25%
% protection at indicated concentration 10 nM (PC12 cells): 51%
% protection at indicated concentration 100 nM (PC12 cells): 79%
% protection at indicated concentration 1 μM (PC12 cells): 85%

O=C(c1ccccc1Br)N1CCN=C1N1CCCCC1 [M059-0193, (2-bromophenyl)-[2-(1-piperidyl)-4,5-dihydroimidazol-1-yl] methanone]
protection of cells at 10 μM (PC12 cells): 10 μM confers protection 58% of cells

O=C(c1ccccc1F)N1CCN=C1N1CCCCC1 [M059-0216, (2-fluorophenyl)-[2-(1-piperidyl)-4,5-dihydroimidazol-1-yl] methanone]
protection of cells at 10 μM (PC12 cells): 10 μM confers protection 71% of cells

O=C(c1ccccc1Cl)N1CCN=C1N1CCCCC1 [M059-0326, (2-chlorophenyl)-[2-(1-piperidyl)-4,5-dihydroimidazol-1-yl] methanone]
protection of cells at 10 μM (PC12 cells): 10 μM confers protection 56% of cells

CCCC(=O)N1CCN=C1N1CCCCC1 [M059-0335, 1-(2-(piperidin-1-yl)-4,5-dihydro-1H-imidazol-1-yl)butan-1-one]
inhibition at 1 µM (PC12 cells): 47%

CCN1CCN(C2=NCCN2C(=O)C2CCCC2)CC1 [M059-1012, cyclopentyl(2-(4-ethylpiperazin-1-yl)-4,5-dihydro-1H-imidazol-1-yl)methanone]
inhibition at 0.1 µM (PC12 cells): 51%

CC(C)N1CCN(C(=O)CN2C(=O)C3CCCN3C(=O)c3cc(F)ccc32)CC1 (centres unmarked) [M284-0488, 7-fluoro-10-(2-(4-isopropylpiperazin-1-yl)-2-oxoethyl)-2,3-dihydro-1H-benzo[e]pyrrolo[1,2-a][1,4]diazepine-5,11(10H,11aH)-dione]
inhibition at 0.0001 µM (PC12 cells): 35%
inhibition at 0.001 µM (PC12 cells): 51%
inhibition at 0.01 µM (PC12 cells): 82%
inhibition at 0.1 µM (PC12 cells): 72%
inhibition at 1 µM (PC12 cells): 80%

O=C(CN1C(=O)C2CCCN2C(=O)c2ccc(F)cc21)Nc1ccc(F)c(F)c1 (centres unmarked) [M284-0942, N-(3,4-difluorophenyl)-2-(8-fluoro-5,11-dioxo-2,3,11,11a-tetrahydro-1H-benzo[e]pyrrolo[1,2-a][1,4]diazepin-10(5H)-yl)acetamide]
inhibition at 0.1 µM (PC12 cells): 52%

O=C1C(NS(=O)(=O)c2ccc(Cl)s2)CCN1c1ccccc1 (centres unmarked) [P316-0028, 5-chloro-N-(2-oxo-1-phenylpyrrolidin-3-yl)thiophene-2-sulfonamide]
inhibition at 0.01 µM (PC12 cells): 43%
inhibition at 0.1 µM (PC12 cells): 49%
inhibition at 1 µM (PC12 cells): 53%

O=C(O)c1nc2ncccn2n1 [R052-2664, [1,2,4]triazolo[1,5-a]pyrimidine-2-carboxylic acid]
inhibition at 0.01 µM (PC12 cells): 21%
inhibition at 0.1 µM (PC12 cells): 49%
inhibition at 1 µM (PC12 cells): 50%

O=C(N1CCN(c2nnc3ccc(Cl)cn23)CC1)C1(c2ccccc2)CC1 [T404-2346, (4-(6-chloro-[1,2,4]triazolo[4,3-a]pyridin-3-yl)piperazin-1-yl)(1-phenylcyclopropyl)methanone]
inhibition at 0.1 µM (PC12 cells): 42%

CC(C)C(=O)Nc1ccc(Oc2ccc(NC(=O)C(C)C)cc2)cc1 [Y200-4083, N,N'-(oxybis(4,1-phenylene))bis(2-methylpropanamide)]
% protection at indicated concentration 0.1 nM (PC12 cells): 11%
% protection at indicated concentration 1 nM (PC12 cells): 25%
% protection at indicated concentration 10 nM (PC12 cells): 32%
% protection at indicated concentration 100 nM (PC12 cells): 49%
% protection at indicated concentration 1 μM (PC12 cells): 74%

O=S1(=O)N=C(NCCN2CCCC2)C(NCCN2CCCC2)=N1 [Z087-0195, 3,4-bis((2-(pyrrolidin-1-yl)ethyl)amino)-1,2,5-thiadiazole 1,1-dioxide]
inhibition at 0.0001 µM (PC12 cells): 9%
inhibition at 0.001 µM (PC12 cells): 21%
inhibition at 0.01 µM (PC12 cells): 25%
inhibition at 0.1 µM (PC12 cells): 80%
inhibition at 1 µM (PC12 cells): 98.5%

CCN1CCN(c2c(C)c(C)nc3ncnn23)CC1 [Z606-8336, 7-(4-ethylpiperazin-1-yl)-5,6-dimethyl-[1,2,4]triazolo[1,5-a]pyrimidine]
inhibition at 0.0001 µM (PC12 cells): 29%
inhibition at 0.001 µM (PC12 cells): 35%
inhibition at 0.01 µM (PC12 cells): 54%
inhibition at 0.1 µM (PC12 cells): 64%
inhibition at 1 µM (PC12 cells): 75%

CC(C)c1cc(C2CCCN2C(=O)C2CC2)no1 (centres unmarked) [Z632-2266, cyclopropyl(2-(5-isopropylisoxazol-3-yl)pyrrolidin-1-yl)methanone]
inhibition at 0.0001 µM (PC12 cells): 13%
inhibition at 0.001 µM (PC12 cells): 22%
inhibition at 0.01 µM (PC12 cells): 46%
inhibition at 0.1 µM (PC12 cells): 78%
inhibition at 1 µM (PC12 cells): 93%

CNC(=O)c1n[nH]c2c1CCCCCC2 [Z632-6109, N-methyl-4,5,6,7,8,9-hexahydro-1H-cycloocta[c]pyrazole-3-carboxamide]
inhibition at 0.0001 µM (PC12 cells): 26%
inhibition at 0.001 µM (PC12 cells): 25%
inhibition at 0.01 µM (PC12 cells): 40%
inhibition at 0.1 µM (PC12 cells): 70%
inhibition at 1 µM (PC12 cells): 81%

CC(C)C[C@H](NC(=O)N[C@H](C(=O)N[C@@H](CCC(N)=O)C(=O)N[C@@H](C)C=O)[C@@H]1CCNC(=N)N1)C(=O)O [elastatinal, reference compound]
KCN-induced necrotic cell death assessed by LDH release (PC12 cells): no protective effect
